The results in this text go back to publication PMC6697720, “Saturation of acyl chains converts cardiolipin from an antagonist to an activator of Toll-like receptor-4” (Cellular and Molecular Life Sciences: CMLS, 2019).

This experiment deals with primary BMDM cells. As to the kind of experiment: TNF-α and IP-10 secretion in primary BMDMs incubated with CL or LPS alone. The experiment is classed as cell-based, murine. The conditions noted are these: overnight. The protocol: Bone marrow was isolated from femurs and tibias of 10-week-old C57BL/6 mice killed by cervical dislocation. Briefly, bone marrow was flushed out with a syringe filled with DMEM, pelleted down, and resuspended and homogenized in complete medium (DMEM supplemented with 10% heat-inactivated FBS from South America, 2 mM glutamine, 50 U/mL penicillin, 50 μg/mL streptomycin, and 20% of supernatant taken from L929 cells). The cell suspension generated thereafter was then maintained in petri dishes for 7 days.
Primary BMDM cells were detached from petri dishes and seeded the day before the experiment in 96-well plates at 0.75 × 10^6 cells/mL (200 μL/well).
After stimulation, supernatants were collected, centrifuged, and assayed for cytokine secretion, while cells were assayed for viability.
TNF-α and IP-10 were quantified in cell supernatants using DuoSet ELISA kits from R&D Systems and human IL-1β using Instant ELISA™ Kit from Invitrogen, according to the manufacturer’s instructions. Absorbance was read with a BioTek Synergy HT Microplate Readers. […]
Primary BMDM cells were incubated overnight with medium (ctrl) or C14:0 CL at the indicated concentrations. TNF-α and IP-10 were measured by ELISA in collected supernatants. […]

Regarding `CCCCCCCCCCCCCC(=O)OC[C@H](COP(=O)(O)OCC(O)COP(=O)(O)OC[C@@H](COC(=O)CCCCCCCCCCCCC)OC(=O)CCCCCCCCCCCCC)OC(=O)CCCCCCCCCCCCC` (some centres unmarked) [C14:0 CL], the IP-10 secretion entry was “induces” and the TNF-α secretion entry is reported as “induces”.
